According to patent US20230040386A1, “URSODEOXYCHOLIC ACID-CONTAINING AGENT FOR TREATING OR PREVENTING PRESBYOPIA” (priority 2018, published 2023):

Legend:
Type in all cases: in vivo, C57BL/6J mice
lens [1] = assay: Pharmacological Test 6: lens elasticity, ursodeoxycholic acid methyl ester once-daily for 7 days; details: for Lens elasticity improvement: QD, 7-month-old mice, vs vehicle control
Protocol: A vehicle comprising 0.1% (w/v) of ethyl pyruvate, 0.269% (w/v) of sodium dihydrogenphosphate monohydrate […], 0.433% (w/v) of disodium hydrogenphosphate (Na2HPO4), 0.2% (w/v) of hydroxypropyl methylcellulose, 0.5% (w/v) of NaCl was prepared. Ursodeoxycholic acid methyl ester was sonicated with the addition of the vehicle to prepare a 0.3% (w/v) suspension, a 1.0% (w/v) suspension and a 3.0% (w/v) suspension. The total amount of each sample to be used in one day was prepared before use. 1) Each test sample (2.5 μL/eye) was instilled into both eyes of 7-month-old C57BL/6J mice with a Pipetman once per day (QD; around 13:30) for 7 days. 2) Twenty-four hours after the final instillation, the mice were euthanized by carbon dioxide inhalation, and then the eyeballs were extracted and rinsed with Hank's balanced salt solution (HBSS). 3) The sclera near the optic nerve was cut with a razor, the lens was removed through the incision, and the removed lens was immersed in HBSS. 4) The lens was placed on a glass slide, and an all-in-one fluorescence microscope BZ-9000 (Keyence) was used to capture an image of the lens (Image a). 5) Next, one cover glass (Corning^(registered trade mark) 22×22 mm Square) was placed on the lens, and an image in which the thickness of the lens changed due to the weight was similarly captured (Image b). 6) A change in the lens diameter was calculated from Equation 1 wherein the lens diameter of Image a is subtracted from the lens diameter of Image b, as described below. Then, the lens elasticity improvement of each sample group compared with the vehicle control group was calculated from Equation 2 described below. Each mean of the vehicle control group and each ursodeoxycholic acid methyl ester sample group was based on 9 or 10 eyes. Change in lens diameter=Lens diameter in Image b of each test sample−Lens diameter in Image a of each test sample (Equation 1) Lens elasticity improvement of each sample group=Mean change in lens diameter of each Test sample group−Mean change in lens diameter of Vehicle control group (Equation 2)

lens [2] = assay: Pharmacological Test 7: lens elasticity, tauroursodeoxycholic acid once-daily for 7 days
Protocol: (§1) A vehicle comprising 0.1% (w/v) of ethyl pyruvate, 0.269% (w/v) of sodium dihydrogenphosphate monohydrate (NaH2PO4H2O), 0.433% (w/v) of disodium hydrogenphosphate (Na2HPO4), 0.2% (w/v) of hydroxypropyl methylcellulose, 0.5% (w/v) of NaCl was prepared. Tauroursodeoxycholic acid was dissolved with the addition of the vehicle to prepare a 1.0% (w/v) solution. The total amount of each sample to be used in one day was prepared before use. 1) Each test sample (2.5 μL/eye) was instilled into both eyes of 7-month-old C57BL/6J mice with a Pipetman once per day (QD; around 13:30) for 7 days. 2) Twenty-four hours after the final instillation, the mice were euthanized by carbon dioxide inhalation, and then the eyeballs were extracted and rinsed with Hank's balanced salt solution (HBSS). 3) The sclera near the optic nerve was cut with a razor, the lens was removed through the incision, and the removed lens was immersed in HBSS. 4) The lens was placed on a glass slide, and an all-in-one fluorescence microscope BZ-9000 (Keyence) was used to capture an image of the lens (Image a). […] 6) A change in the lens diameter was calculated from Equation 1 wherein the lens diameter of Image a is subtracted from the lens diameter of Image b, as described below. Then, the lens elasticity improvement of each sample group compared with the vehicle control group was calculated from Equation 2 described below. […]

lens [3] = assay: Pharmacological Test 8: lens elasticity, glycoursodeoxycholic acid once-daily for 7 days
Protocol: as §1, with “Glycoursodeoxycholic” for “Tauroursodeoxycholic”, “sonicated” for “dissolved”, “suspension.” for “solution.”, “8-month-old” for “7-month-old”, “(image” for “(Image”

lens [4] = assay: Pharmacological Test 2: lens elasticity after instillation of sodium ursodeoxycholate; details: for Lens elasticity improvement: 2.5 μL/eye, 3 times per day, 12 to 15 days, vs vehicle control
Protocol: A vehicle comprising 0.1% (w/v) of ethyl pyruvate, 0.269% (w/v) of sodium dihydrogenphosphate monohydrate (NaH2PO4H2O), 0.433% (w/v) of disodium hydrogenphosphate (Na2HPO4), 0.2% (w/v) of hydroxypropyl methylcellulose, 0.5% (w/v) of NaCl was prepared. Sodium ursodeoxycholate was sonicated with the addition of the vehicle to prepare a 1.5% (w/v) suspension. The resulting 1.5% (w/v) suspension was diluted with the vehicle to prepare a 0.5% (w/v) suspension. Further, the resulting 0.5% (w/v) suspension was diluted with the vehicle to prepare a 0.15% (w/v) suspension. The total amount of each sample to be used in one day was prepared before use. EV06 was sonicated with the addition of the vehicle to prepare a 1.5% (w/v) solution. The total amount of the sample to be used in one day was prepared before use. 1) Each test sample (2.5 μL/eye) was instilled into the right eye of 8-month-old C57BL/6J mice with a Pipetman 3 times per day (around 9:00, 13:00 and 17:00) for 12 to 15 days. 2) After the final instillation, the mice were euthanized by carbon dioxide inhalation, and then the eyeballs were extracted and rinsed with Hank's balanced salt solution (HBSS)). 3) The sclera near the optic nerve was cut with a razor, the lens was removed through the incision, and the removed lens was immersed in HBSS. 4) The lens was placed on a glass slide, and an all-in-one fluorescence microscope BZ-9000 (Keyence) was used to capture an image of the lens (Image a). 5) Next, one cover glass (Corning^(registered trade mark) 22×22 mm Square) was placed on the lens, and an image in which the thickness of the lens changed due to the weight was similarly captured (Image b). 6) A change in the lens diameter was calculated from Equation 1 wherein the lens diameter of Image a is subtracted from the lens diameter of Image b, as described below. Then, the lens elasticity improvement of each sample group compared with the vehicle control group was calculated from Equation 2 described below. The mean of the vehicle control group was based on 5 eyes, the mean of each sodium ursodeoxycholate sample group was based on 10 eyes, and the mean of the EV06 sample group was based on 10 eyes. Change in lens diameter Lens diameter in image b of each test sample−Lens diameter in Image a of each test sample (Equation 1) Lens elasticity improvement of each sample group=Mean change in lens diameter of each Test sample group−Mean change in lens diameter of Vehicle control group (Equation 2)

lens [5] = assay: Pharmacological Test 3: lens elasticity after instillation of ursodeoxycholic acid (free form)
Protocol: A vehicle comprising 0.1% (w/v) of ethyl pyruvate, 0.269% (w/v) of sodium dihydrogenphosphate monohydrate (NaH2PO4H2O), 0.433% (w/v) of disodium hydrogenphosphate (Na2HPO4), 0.2% (w/v) of hydroxypropyl methylcellulose, and 0.5% (w/v) of NaCl was prepared. Ursodeoxycholic acid was sonicated with the addition of the vehicle to prepare a 1.5% (w/v) suspension. The resulting 1.5% (w/v) suspension was diluted with the vehicle to prepare a 0.5% (w/v) suspension. Further, the resulting 0.5% (w/v) suspension was diluted with the vehicle to prepare a 0.15% (w/v) suspension. The total amount of each sample to be used in one day was prepared before use. EV06 was sonicated with the addition of the vehicle to prepare a 1.5% (w/v) solution. The total amount of the sample to be used in one day was prepared before use. 1) Each test sample (2.5 μL/eye) was instilled into the right eye of 8-month-old C57BL/6J mice with a Pipetman 3 times per day (around 9:00, 13:00 and 17:00) for 12 to 15 days. 2) After the final instillation, the mice were euthanized by carbon dioxide inhalation, and then the eyeballs were extracted and rinsed with Hank's balanced salt solution (HBSS). 3) The sclera near the optic nerve was cut with a razor, the lens was removed through the incision, and the removed lens was immersed in HBSS. 4) The lens was placed on a glass slide, and an all-in-one fluorescence microscope BZ-9000 (Keyence) was used to capture an image of the lens (Image a). 5) Next, one cover glass (Corning^(registered trade mark) 22×22 mm Square) was placed on the lens, and an image in which the thickness of the lens changed due to the weight was similarly captured (image b). 6) A change in the lens diameter was calculated from Equation 1 wherein the lens diameter of Image a is subtracted from the lens diameter of Image b, as described below. Then, the lens elasticity improvement of each sample group compared with the vehicle control group was calculated from Equation 2 described below. The mean of the vehicle control group was based on 5 eyes, the mean of each ursodeoxycholic acid sample group was based on 10 eyes, and the mean of the EV06 sample group was based on 10 eyes. Change in lens diameter=Lens diameter in Image b of each test sample−Lens diameter in Image a of each test sample (Equation 1) Lens elasticity improvement of each sample group=Mean change in lens diameter of each Test sample group−Mean change in lens diameter of Vehicle control group (Equation 2)

[6] = 1.5% sample group vs EV06 at the same concentration

## COC(=O)CC[C@@H](C)[C@H]1CC[C@H]2[C@@H]3[C@@H](O)C[C@@H]4C[C@H](O)CC[C@]4(C)[C@H]3CC[C@]12C [ursodeoxycholic acid methyl ester]
Lens [1]; 0.3% (w/v) sample
  Lens elasticity improvement: 13.2 μm
Lens [1]; 1% (w/v) sample
  Lens elasticity improvement: 33.0 μm
Lens [1]; 1% and 3% samples instilled once-daily
  Lens elasticity improvement, in words: potent lens elasticity improvement
Lens [1]; 3% (w/v) sample
  Lens elasticity improvement: 46.5 μm

## C[C@H](CCC(=O)NCCS(=O)(=O)O)[C@H]1CC[C@H]2[C@@H]3[C@@H](O)C[C@@H]4C[C@H](O)CC[C@]4(C)[C@H]3CC[C@]12C [tauroursodeoxycholic acid, 3α,7β-Dihydroxy-5β-cholan-24-oic Acid N-(2-Sulfoethyl)amide]
Lens [2]; 1% (w/v) solution, QD, 7-month-old mice, vs vehicle control
  Lens elasticity improvement: 29.7 μm
Lens [2]; 1% sample instilled once-daily
  Lens elasticity improvement, in words: potent lens elasticity improvement

## C[C@H](CCC(=O)NCC(=O)O)[C@H]1CC[C@H]2[C@@H]3[C@@H](O)C[C@@H]4C[C@H](O)CC[C@]4(C)[C@H]3CC[C@]12C [glycoursodeoxycholic acid, N-(3α,7β-Dihydroxy-5β-cholan-24-oyl)glycine]
Lens [3]; 1% (w/v) suspension, QD, 8-month-old mice, vs vehicle control
  Lens elasticity improvement: 20.1 μm
Lens [3]; 1% sample instilled once-daily
  Lens elasticity improvement, in words: potent lens elasticity improvement

## C[C@H](CCC(=O)[O-])[C@H]1CC[C@H]2[C@@H]3[C@@H](O)C[C@@H]4C[C@H](O)CC[C@]4(C)[C@H]3CC[C@]12C.[Na+] [sodium ursodeoxycholate]
Lens [4]; 0.15% (w/v) sample
  Lens elasticity improvement: 26.5 μm
Lens [4]; 0.5% (w/v) sample
  Lens elasticity improvement: 34.8 μm
Lens [4]; 1.5% (w/v) sample
  Lens elasticity improvement: 44.7 μm
Lens [4]; [6]
  Lens elasticity improving effect compared with EV06, in words: stronger than that of EV06
Lens [4]; all of the 0.15%, 0.5% and 1.5% sample groups
  Lens elasticity improving effect, in words: potent lens elasticity improving effect
Lens [5]; [6]
  Lens elasticity improving effect compared with EV06, in words: stronger than that of EV06
Lens [5]; all of the 0.15%, 0.5% and 1.5% sample groups (Table 3)
  Lens elasticity improving effect, in words: potent lens elasticity improving effect
